Data set [1] deals with souris. In words: Interaction with oxotremorine. To be noted: mouse, oxotremorine 0,5 mg/kg i.p. It counts as in vivo. The procedure: Le CRL 41131 est administré à des lots de 6 souris 30 min avant l'injection intrapéritonéale de 0,5 mg/kg d'oxotrémorine.
The nature of another data set: in vivo. Conditions: mouse, in vivo, ip; for LD50 at 48 h: 48 h after administration; for LD50 at 72 h: 72 h after administration; for LD50 at 24 h: dose létale 50% (DL50), 24 h after administration; for selectivity ratio: rapport, LD50 ratio isolated/grouped mice (formula not readable). The procedure:
(§1) Le CRL 41131, en suspension dans une solution de gomme arabique à 5%, a été administré par voie intrapéritonéale sous un volume de 20 ml/kg chez la souris (mâle, NMRI, Evic Ceba) et de 5 ml/kg chez le rat (mâle, CD1, Sprague Dawley, Charles River).
(§2) Aussitôt après l'administration de CRL 41131, les souris groupées par lots de 10 sont placées dans des boîtes en Plexiglass (20 x 10 x 10 cm).
(§3) On note le nombre d'animaux morts, toutes les heures pendant 4 h et après 24, 48 et 72 h.
(§4) La toxicité du CRL 41131 est déterminée dans les mêmes conditions sur des lots de souris placées à raison d'une par boîte.

In data set [2] the test system is souris. Briefly: in vivo. Conditions: 24 h after administration. The procedure:
as §1, §2, §3, §4

Entries after “also recorded” stand apart in the source; their conditions may differ.

For orientation: LD50 means the dose at which mortality reaches 50%. A higher LD50 goes with lower toxicity. For `O=C(CC(=O)N(c1ccc(F)cc1)c1ccc(F)cc1)NO` [CRL 41131, acide N,N-bis-(4-fluorophényl) carbamoylacétohydroxamique], in the data set with souris [1], the “action hypothermisante de l'oxotrémorine (température)” value was “n'a pas d'effet; also recorded: ne modifie pas”, the “intensité des tremblements provoqués par l'oxotrémorine” value is on record as “n'a pas d'effet; also recorded: ne modifie pas” and the “signes de stimulation cholinergique périphérique dus à l'oxotrémorine” value is “ne modifie pas”. Further, in “in vivo” (DL50, grouped mice), the LD50 at 48 h was ~480 mg/kg and the LD50 at 72 h was ~370 mg/kg. In “in vivo” (DL50, isolated mice), the LD50 at 48 h was ~300 mg/kg and the LD50 at 72 h is ~1100 mg/kg. Also, the LD50 at 24 h in “in vivo” (grouped mice) was ~700 mg/kg. In addition, the LD50 at 24 h in “in vivo” (isolated mice) was ~500 mg/kg. The selectivity ratio in the data set “in vivo” (48 h) amounted to 2.7. For the same compound, the selectivity ratio in the data set “in vivo” (72 h) was 2.97. Besides, the “toxicité chez les souris groupées par rapport aux souris isolées” value in the data set with souris [2] was “modérément plus toxique chez les souris groupées”.

The values above are taken from patent EP0256909B1, “N,N-bis-(4-fluorophenyl) carbamoyl acetohydroxamic acid and pharmaceutical composition containing it” (priority 1986, dated 1988).
